Earlier results, collected in patent US6613244B2, “Ironing aid composition” (Unilever Home & Personal Care USA, division of Conopco, Inc., priority 2000, dated 2003).

Conditions: stated in words, related to ClogP

Question: With CC(=O)OC(c1ccccc1)C(Cl)(Cl)Cl (stereo not shown) [rose acetate] as the compound, how does the solubility in water read?
Answer: Its solubility in water is “not easily soluble in water”.
